Patent US9512425B2, “Inhibiting migration of cancer cells” (Cornell University, priority 2012, dated 2016)

Assays:
Type in all cases: cell-based, human
NNAT protein = test: Western blot of NNAT
Protocol: (§1) Cells were homogenized in 1×RIPA lysis buffer (Millipore) containing protease inhibitors (Roche Applied Science) and 1× phosphatase inhibitor (Thermo Scientific). Samples were boiled in 1× NuPAGE LDS sampling buffer (Invitrogen), and loaded onto 4-20% gradient Tris-HCl gels (BioRad). Western blotting was performed using antibodies specific for NNAT (Cat#AB27266, Abcam), EPDR1 (Cat# SC81820, Santa Cruz), SSRP1 (Cat#SC56782, Santa Cruz), HOXB3 (Cat# SC17161, Santa Cruz), HNRNPK (Cat# SC28380, Santa Cruz), CNTFR, Phospho-p44/42 MAPK (Erk1/2, Cat #4370, Cell Signaling), p44/42 MAPK (Erk1/2, Cat #4695, Cell Signaling), VINCULIN (Cat#V9131, Sigma-Aldrich), and β-ACTIN (Sigma-Aldrich).

p-ERK (T202) = test: Western blot of p-ERK after ATP stimulation; settings: MDA-miR-708 vs MDA cells after ATP
Protocol: as §1

cortical actin = test: Immunostaining for vinculin and F-actin (phalloidin); settings: MDA-miR-708 cells
Protocol: For immunofluorescence staining, cells were fixed overnight in paraformaldehyde before incubation with primary antibodies; mouse-monoclonal VINCULIN (Cat#V9131, Sigma-Aldrich, 1:400) and rabbit-polyclonal phosphorylated FAK (pS910, Cat #44596G, Invitrogen, 1:1000). Alexa Flour 568 or Alexa Fluor 647 anti-mouse IgG, and Alexa Fluor 647 anti-rabbit IgG (Invitrogen), were used for visualization. Following incubation with secondary antibodies the tissue sections were treated with Rhodamine Phalloidin (Cat# R415, Invitrogen). Fluorescent images were obtained using a computerized Zeiss fluorescent microscope (Axiovert 200M), fitted with an apotome and an HRM camera. Images were analyzed using Axiovision 4.6 software (Carl Zeiss Inc.).

intracellular Ca^2+ = test: Intracellular calcium measurements (Fura-2, ATP stimulation)
Protocol: MDA-control, MDA-miR-708, and MDA-miR-708-Nnat-mut cells were grown on coverslips and used 2-3 days after plating. Cells were loaded with […] Fura-2 (Molecular Probes), a membrane-permeable Ca^2+-indicator dye, at 37° C. for 30 min. Cells were then washed and incubated in HEPES-buffered Na^+-Ringer's solution (140 mM NaCl, 5 mM KCl, 10 mM HEPES, 2 mM CaCl2, and 1 mM MgCl2, pH 7.4). Individual vials (50 mg) of the acetoxymethyl derivative of Fura-2 (Invitrogen/Molecular Probes) were stored dry at 0° C. and reconstituted in dimethyl sulfoxide at a concentration of 10 mM for each experiment. At the concentrations used, dimethyl sulfoxide had no effect on any preparation in these studies. The coverslip with the dye-loaded cells was attached to the bottom of a flow-through superfusion chamber and mounted on the stage of an inverted epifluorescence microscope (Nikon Eclipse TE-2000). The cells in the chamber were superfused and maintained at 37° C. as previously described (O'Connor and Silver, 2007). Cells were first visualized under transmitted light with a Nikon CF Fluor oil immersion objective (X40/1.3 numerical aperture) before the start of the fluorescence measurements. Images were obtained at 340 nm and 380 nm excitation and at 510 nm emission wavelengths. The ratio was determined from the images at 340 nm and 380 nm. The imaging workstation was controlled with the MetaFluor software package (Universal Imaging). Cells in the experimental field of view were analyzed singularly and independently from their neighbors. Results are expressed as means±SEM, where n refers to the total number of individually analyzed cells.
The inventors hypothesized that miR-708-mediated targeting of Nnat may lead to impaired regulation of intracellular Ca^2+. This would explain the inhibitory effect on the migratory phenotype of metastatic tumor cells observed earlier (see, e.g., FIG. 1E). To test this hypothesis, MDA and MDA-miR-708 cells were loaded with the intracellular calcium indicator, Fura-2, and the 340/380 ratios were monitored in the absence and presence of exogenous ATP. ATP binds ATP receptors on the cell surface, resulting in the cleavage of PIP2 into IP3 and DAG. IP3 binds IP3 receptors on the endoplasmic reticulum membrane, and releases ionized calcium from the endoplasmic reticulum (Vandewalle et al., 1994), (Berridge et al., 2003; Swanson et al., 1998). Thus, ATP-stimulated calcium release from endoplasmic reticulum was used to evaluate the consequence of Nnat suppression by miR-708.

## miR-708: microRNA, mature sequence 5'-AAGGAGCUUACAAUCUAGCUGGG-3' (SEQ ID NO: 2); expressed from lentiviral vector or used as synthetic precursor
NNAT protein; MDA-708 vs MDA control cells, constitutive expression
  expression of NNAT protein: significantly decreased
NNAT protein; doxycycline-mediated conditional expression of miR-708
  Nnat levels: significant reduction
NNAT protein; mutant 3'-UTR (Nnat-mut), synthetic miR-708
  NNAT expression from Nnat cDNA: abolished miR-708-mediated suppression
NNAT protein; wild type UTR, synthetic miR-708 vs scrambled
  NNAT expression from Nnat cDNA: suppressed expression
p-ERK (T202)
  activated Erk (p-Erk) levels: reduced levels
Cortical actin
  cortical actin phenotype: thick bands of cortical actin rings
Intracellular Ca^2+; MDA cells expressing miR-708 vs MDA
  regulation of intracellular Ca^2+ after ATP: attenuated regulation
Intracellular Ca^2+; MDA-miR-708 cells stimulated with ATP, control slope 0.72
  slope, initial rate of calcium regulation back to baseline (representative trace): 0.3 ratio/min
Intracellular Ca^2+; MDA-miR-708 cells, mean±SEM
  pre-ATP stimulation (basal) ratio: 0.97±0.01
Intracellular Ca^2+; MDA-miR-708 cells, mean±SEM, n=107
  peak calcium response due to ATP stimulation (340/380 ratio): 1.77±0.06
Intracellular Ca^2+; MDA-miR-708 cells, n=105, control 0.52±0.03
  initial rate of calcium regulation back to baseline: 0.33±0.02
